The values below come from patent US12583825B2, “Benzo[h]quinazolin-4-amine and thieno[3,2-h]quinazolin-4-amine derivatives for the treatment of cancer” (Redona Therapeutics, Inc., priority 2020, dated 2026).

Assay [1] concerns the target T1, recombinant human CLK3 (Homo sapiens, UniProt P49761).
T1 construct: purchased Thermo Fisher Scientific PV3826
Kind of assay: CLK3 kinase assay (LANCE Ultra). It is filed as biochemical. The note with it: 0.5 nM CLK3, 300 μM ATP, 3 hours at 30° C. In a few lines:
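TR-FRET (LANCE Ultra) read-out of phospho-CREBtide after a 3 h, 30 °C reaction containing 300 μM ATP, 50 nM ULight-CREBtide and 0.5 nM recombinant human CLK3, compounds in 1% DMSO.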
Background: TR-FRET usually uses a lanthanide donor and a delayed reading to cut background.

The subject of assay [2] is phospho-SRSF6 levels in MDA-MB-468 cells. The assay is described as follows: Inhibition of phospho-SRSF6 levels in MDA-MB-468 cells (Western blot). It is filed as cell-based. The settings on record: Homo sapiens, 100 nM, 2 hours, normalized by GAPDH, read-out: % Intensity of p-SRSF6 signal at 100 nM compared to DMSO control. The procedure:
FIG. 1: FIG. 1 provides a representative Western blot showing reduction of phosphorylated-SRSF6 (P-SRSF6) in MDA-MB 468 cells by compounds of the invention. GAPDH was probed for by Western blotting to control for equal protein loading and for normalization of samples. The numbers below the blots show percent intensity of P-SRSF6 signal at 100 nM compared to DMSO control.
Assessment of Inhibition of Phospho-SRSF6 Levels in MDA-MB-468 Cells
MDA-MB-468 cells (ATCC, HTB-132) were cultured in DMEM (BioConcept cat. no. 1-26F03) supplemented with 10% FBS (Sigma cat. no. F9665), 1% Na-pyruvate (Sigma cat. no. S8636), 1% Penicillin-Streptomycin (BioConcept cat. no. 4-01F00-H). When cells reached a density of 70% in 6-well plates (TPP cat. no. 92006), they were treated either with the test compound vehicle DMSO, or with experimental compounds at a final concentration of 100 nM for 2 hours. Thereafter, the culture medium was removed and cells were collected by scraping in Lysis Buffer (20 mM Tris HCl pH7.5, 150 mM NaCl, 1 mM EGTA, 1 mM EDTA, 1% Triton and 1% NP-40) containing protease and phosphatase inhibitors (Halt™ Protease&Phosphatase inhibitor cocktail 100× ThermoScientific cat. no. 1861281) and 1 mM PMSF (Fluka cat. no. 93482). Cleared lysates were stored in Eppendorf tubes at −80° C. until use, and protein concentration in lysates was determined using Pierce 660 nm Protein Assay Reagent (ThermoScientific cat. no. 22660). 20 μg proteins were diluted in 4× Laemmli buffer (Biorad cat. no. 161-0747) containing 10% beta-mercaptoethanol, separated by SDS-PAGE using 10% gels, and then transferred to PVDF membranes (Trans Blot Turbo Transfer Pack BioRad cat. no. 1704156) by Trans-Blot® Turbo™ System semidry blotting methodology (BioRad). Primary antibodies were incubated in TBS-0.1% Tween-20 buffer containing 3% BSA Bovine Albumin Fr.V (Millipore cat. no. 81-053-3) overnight at 4° C. The following primary antibodies were used: Mouse anti-phosphoepitope SR proteins clone 1H4 (Millipore cat. no. MABE50) diluted 1:5000, and rabbit anti-GAPDH clone 14C10 (Cell Signaling cat. no. 2118S) to control for equal protein loading, diluted 1:2000. HRP-conjugated secondary antibodies were incubated one hour at room temperature diluted 1:5000 in TBS-0.1% Tween-20 buffer containing 5% nonfat-dried bovine milk (Sigma cat. no. M7409). The following secondary antibodies were used: Goat anti-mouse-HRP (Jackson cat. no. 115-035-146) and goat anti-rabbit-HRP (Jackson cat. no. 111-035-144). Membranes were incubated with ECL Prime Western Blot Detection Reagent (Amersham cat. no. RPN2236) to detect specific signals using Fusion SOLO S device (Vilber Lourmat). Pixel intensity of the phopsho-SRSF6 (MW 55 kDa in reference to markers) and GAPDH (MW 37 kDa) signals in the Western blots were determined using Evolution-Capt image analysis software (v17.01, Vilber Lourmat). DMSO control was used to set the phospho-SRSF6 signal at baseline, phospho-SRSF6 signals for each sample were normalized by the respective GAPDH signals and percent intensity of P-SRSF6 signal at 100 nM compound compared to DMSO control was calculated (see FIG. 1).

In assay [3] the test system is MDA-MB-231 cells. Kind of assay: MDA-MB-231 proliferation assay. Format: cell-based. The note with it: Homo sapiens, 72 hours, YO-PRO-1 readout. In a few lines:
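Cells seeded at 750/well in DMEM with 10% FBS, treated 72 h at 37 °C, 0.5% DMSO final. Cell number read by YO-PRO-1 fluorescence (485/530 nm), normalised to DMSO (100%) and time-of-addition cells (0%); 4-parameter logistic fit with maximum fixed at 100%.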

A value given as a limit tells only on which side of the number the result lay.

T1 sequence (P49761 whole entry): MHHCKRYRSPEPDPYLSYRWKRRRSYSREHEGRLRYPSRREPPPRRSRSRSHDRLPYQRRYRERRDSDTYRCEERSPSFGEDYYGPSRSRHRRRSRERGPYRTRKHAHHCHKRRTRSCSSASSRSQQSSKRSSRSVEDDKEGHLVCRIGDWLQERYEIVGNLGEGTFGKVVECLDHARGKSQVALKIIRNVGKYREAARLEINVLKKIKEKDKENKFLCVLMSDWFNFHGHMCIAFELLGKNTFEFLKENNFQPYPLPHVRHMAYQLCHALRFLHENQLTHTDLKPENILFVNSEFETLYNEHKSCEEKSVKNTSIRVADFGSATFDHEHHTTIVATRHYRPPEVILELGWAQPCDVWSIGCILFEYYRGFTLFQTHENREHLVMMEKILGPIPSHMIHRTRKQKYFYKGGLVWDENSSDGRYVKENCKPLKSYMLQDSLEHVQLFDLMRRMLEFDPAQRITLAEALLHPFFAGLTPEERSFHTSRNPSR

As for `CO/N=C1\c2cc(O[C@H]3CC[C@H](N)CC3)ccc2-c2ncnc(N)c2C1(C)C` [Example 1, (6Z)-8-(trans-4-aminocyclohexoxy)-6-methoxyimino-5,5-dimethyl-benzo[h]quinazolin-4-amine], the IC50 – broadly, the concentration needed to halve the response being measured – in assay [1] worked out at 9.1 nM. Further, the activity at 0.1 µM in assay [2] was determined as 19%. Besides, in assay [3], the GI50 (commonly the concentration at which growth is held to half of that of the control) was determined as 407 nM.

With `C=C(c1ccc2c(c1)/C(=N\OC)C(C)(C)c1c(N)ncnc1-2)[C@H]1CC[C@H](N)CC1` [Example 4, (6Z)-8-[1-(trans-4-aminocyclohexyl)vinyl]-6-methoxyimino-5,5-dimethyl-benzo[h]quinazolin-4-amine], the IC50 in assay [1] was 2.1 nM. Further, in assay [2], the activity at 0.1 µM was 32%. In addition, the GI50 in assay [3] was 271 nM.

`COc1ccc2c(c1)/C(=N\OCCCC#N)C(C)(C)c1c(N)ncnc1-2` [Example 6, 4-[(Z)-(4-amino-8-methoxy-5,5-dimethyl-benzo[h]quinazolin-6-ylidene)amino]oxybutanenitrile]: the IC50 in assay [1] came to 32.1 nM. For the same molecule, the activity at 0.1 µM in assay [2] is 41%. Also, the concentration for 50% growth inhibition (GI50) in assay [3] is greater than 2000 nM.

Regarding `CN1C[C@@H](CO/N=C2\c3cc(O[C@H]4CC[C@@H](N)CC4)ccc3-c3ncnc(N)c3C2(C)C)OC1=O` [Example 88, (5S)-5-[[(Z)-[4-amino-8-(cis-4-aminocyclohexoxy)-5,5-dimethyl-benzo[h]quinazolin-6-ylidene]amino]oxymethyl]-3-methyl-oxazolidin-2-one], the IC50 in assay [1] turned out to be 8.8 nM. Moreover, the activity at 0.1 µM in assay [2] was determined as 21%.

As to `CC1(C)/C(=N/OC[C@@H]2CNC(=O)O2)c2cc(C#N)ccc2-c2ncnc(N)c21` [Example 92, (6Z)-4-amino-5,5-dimethyl-6-[[(5S)-2-oxooxazolidin-5-yl]methoxyimino]benzo[h]quinazoline-8-carbonitrile], the IC50 in assay [1] turned out to be 142 nM. The 50% growth inhibitory concentration (GI50) in assay [3] was greater than 2000 nM.

`CC1(C)/C(=N/OC[C@@H]2CNC(=O)O2)c2cc(OCCO)ccc2-c2ncnc(N)c21` [Example 94, (5S)-5-[[(Z)-[4-amino-8-(2-hydroxyethoxy)-5,5-dimethyl-benzo[h]quinazolin-6-ylidene]amino]oxymethyl]oxazolidin-2-one]: the IC50 in assay [1] was 18.6 nM. Moreover, the GI50 in assay [3] was greater than 2000 nM.

In the case of `COCCO/N=C1\c2cc(N[C@H]3CC[C@H](N)CC3)ccc2-c2ncnc(N)c2C1(C)C` [Example 95, (6Z)—N8-(trans-4-aminocyclohexyl)-6-(2-methoxyethoxyimino)-5,5-dimethyl-benzo[h]quinazoline-4,8-diamine], the IC50 in assay [1] was found to be 62.5 nM. Moreover, the GI50 in assay [3] amounted to 1040 nM.

As to `COCCO/N=C1\c2cc(N[C@H]3CC[C@@H](N)CC3)ccc2-c2ncnc(N)c2C1(C)C` [Example 96, (6Z)—N8-(cis-4-aminocyclohexyl)-6-(2-methoxyethoxyimino)-5,5-dimethyl-benzo[h]quinazoline-4,8-diamine], the IC50 in assay [1] was determined as 43.6 nM. Also, the concentration for 50% growth inhibition (GI50) in assay [3] is 670 nM.

For the molecule `CC(=O)c1ccc2c(c1)/C(=N\OC[C@@H]1CNC(=O)O1)C(C)(C)c1c(N)ncnc1-2` [Example 98, (5S)-5-[[(Z)-(8-acetyl-4-amino-5,5-dimethyl-benzo[h]quinazolin-6-ylidene)amino]oxymethyl]oxazolidin-2-one], the IC50 in assay [1] was found to be 26 nM. Moreover, in assay [3], the 50% growth inhibitory concentration (GI50) is greater than 2000 nM.

On to `COCCO/N=C1\c2cc(O[C@H]3CC[C@@H](N)CC3)ccc2-c2ncnc(N)c2C12CCCC2` [Example 100, (6Z)-8-(cis-4-aminocyclohexoxy)-6-(2-methoxyethoxyimino)spiro[benzo[h]quinazoline-5,1′-cyclopentane]-4-amine], for which the IC50 in assay [1] was determined as 3.7 nM. Besides, the GI50 in assay [3] amounted to 10.5 nM.

`COCCO/N=C1\c2cc(O[C@H]3CC[C@@](C)(N)CC3)ccc2-c2ncnc(N)c2C1(C)C` [Example 103, (6Z)-8-(cis-4-amino-4-methyl-cyclohexoxy)-6-(2-methoxyethoxyimino)-5,5-dimethyl-benzo[h]quinazoline-4-amine]: the IC50 in assay [1] worked out at 28.3 nM. The GI50 in assay [3] was found to be 184 nM.

Turning to `Nc1ncnc2c1C1(CCCC1)/C(=N/O)c1cc(O[C@H]3CC[C@@H](N)CC3)ccc1-2` [Example 104, 4-amino-8-(cis-4-minocyclohexoxy)spiro[benzo[h]quinazoline-5,1′-cyclopentane]-6-one oxime], in assay [1], the half-inhibitory concentration (IC50) is 10.4 nM. Moreover, the GI50 in assay [3] is 41.3 nM.

On to `CC1(C)/C(=N/OCCc2ccccc2)c2cc(O[C@H]3CC[C@@H](N)CC3)ccc2-c2ncnc(N)c21` [Example 106, (6Z)-8-(cis-4-aminocyclohexoxy)-5,5-dimethyl-6-(2-phenylethoxyimino)benzo[h]quinazoline-4-amine], for which the IC50 in assay [1] is 23.4 nM. Also, the GI50 in assay [3] is 307 nM.

Turning to `CCOCCO/N=C1\c2cc(O[C@H]3CC[C@@H](N)CC3)ccc2-c2ncnc(N)c2C1(C)C` [Example 109, (6Z)-8-(cis-4-aminocyclohexoxy)-6-(2-ethoxyethoxyimino)-5,5-dimethyl-benzo[h]quinazoline-4-amine], the activity at 0.1 µM in assay [2] was 21%. Further, the GI50 in assay [3] was 156 nM.

Take `CC1(C)/C(=N/OCCCS(C)(=O)=O)c2cc(O[C@H]3CC[C@@H](N)CC3)ccc2-c2ncnc(N)c21` [Example 110, (6Z)-8-(cis-4-aminocyclohexoxy)-5,5-dimethyl-6-(3-methylsulfonylpropoxyimino)benzo[h]quinazoline-4-amine]: the IC50 in assay [1] was 31.8 nM. Besides, in assay [3], the GI50 is greater than 2000 nM.

On to `CC(C)(C#N)CCO/N=C1\c2cc(O[C@H]3CC[C@@H](N)CC3)ccc2-c2ncnc(N)c2C1(C)C` [Example 111, 4-[(Z)-[4-amino-8-(cis-4-aminocyclohexoxy)-5,5-dimethyl-benzo[h]quinazolin-6-ylidene]amino]oxy-2,2-dimethyl-butanenitrile], for which the activity at 0.1 µM in assay [2] turned out to be 16%. Besides, the GI50 in assay [3] came out at 106 nM.

Consider `CC1(C)/C(=N/OCCOCC(F)(F)F)c2cc(O[C@H]3CC[C@@H](N)CC3)ccc2-c2ncnc(N)c21` [Example 112, (6Z)-8-(cis-4-aminocyclohexoxy)-5,5-dimethyl-6-[2-(2,2,2-trifluoroethoxy)ethoxyimino]benzo[h]quinazolin-4-amine], for which, in assay [1], the IC50 came out at 8.8 nM. Also, in assay [3], the GI50 amounted to 66.2 nM.

For `CC1(C)/C(=N/OCCCCF)c2cc(O[C@H]3CC[C@@H](N)CC3)ccc2-c2ncnc(N)c21` [Example 113, (6Z)-8-(cis-4-aminocyclohexoxy)-6-(4-fluorobutoxyimino)-5,5-dimethyl-benzo[h]quinazolin-4-amine], the IC50 in assay [1] was 21.2 nM. The 50% growth inhibitory concentration (GI50) in assay [3] was 167 nM.

Regarding `CC1(C)/C(=N/OCCCC(F)(F)F)c2cc(O[C@H]3CC[C@@H](N)CC3)ccc2-c2ncnc(N)c21` [Example 114, (6Z)-8-(cis-4-aminocyclohexoxy)-5,5-dimethyl-6-(4,4,4-trifluorobutoxyimino)benzo[h]quinazolin-4-amine], in assay [1], the IC50 stood at 48.9 nM. Besides, the 50% growth inhibitory concentration (GI50) in assay [3] is 373 nM.

In the case of `CC1(C)/C(=N/OCCC(F)(F)F)c2cc(O[C@H]3CC[C@@H](N)CC3)ccc2-c2ncnc(N)c21` [Example 116, (6Z)-8-(cis-4-aminocyclohexoxy)-5,5-dimethyl-6-(3,3,3-trifluoropropoxyimino)benzo[h]quinazoline-4-amine], in assay [1], the IC50 worked out at 28.9 nM. Moreover, the GI50 in assay [3] was 71.7 nM.
